Source: ChEMBL document CHEMBL5126669, “Discovery of 5,7-Dihydro-6H-pyrrolo[2,3-d]pyrimidin-6-ones as Highly Selective CDK2 Inhibitors” (ACS Med Chem Lett, 2022)
pIC50: −log10 of the molar value.

What was measured:
[1] = target: Cyclin-dependent kinase 2/cyclin E1 (Homo sapiens, UniProt P24941); experiment: Inhibition of recombinant human N-terminal GST-tagged full-length CDK2/Flag-tagged cyclinE1 expressed in baculovirus expression system using eIF4E-binding protein-1 peptide as substrate incubated for 1 hr in presence of ATP by HTRF assay
Homo sapiens [2] = species on record: Homo sapiens; experiment: Selectivity ratio of IC50 for inhibition of CDK1/cyclin B (unknown origin) to IC50 for inhibition recombinant human N-terminal GST-tagged full-length CDK2/Flag-tagged cyclinE1 expressed in baculovirus expression system
Homo sapiens [3] = species on record: Homo sapiens; experiment: Selectivity ratio of IC50 for inhibition of CDK4/cyclin D1 (unknown origin) to IC50 for inhibition recombinant human N-terminal GST-tagged full-length CDK2/Flag-tagged cyclinE1 expressed in baculovirus expression system
Homo sapiens [4] = species on record: Homo sapiens; experiment: Selectivity ratio of IC50 for inhibition of CDK6/cyclin D1 (unknown origin) to IC50 for inhibition recombinant human N-terminal GST-tagged full-length CDK2/Flag-tagged cyclinE1 expressed in baculovirus expression system
[5] = target: Cyclin-dependent kinase 2 (Homo sapiens, UniProt P24941); experiment: Inhibition of CDK2 in human COV318 cells incubated for overnight in presence of human whole blood by HTRF assay; type: cell-based
[6] = Intrinsic clearance in human liver microsomes at 1 uM measured upto 30 mins by LC/MS analysis; type: ADME, Microsome; details: read-out: CLH (converted)
[7] = Inhibition of CDK1/cyclin B (unknown origin) in presence of ATP; design: species or system Homo sapiens
Homo sapiens [8] = species on record: Homo sapiens; experiment: Selectivity ratio of IC50 for inhibition of CDK1 in human OVCAR3 cells to IC50 for inhibition of CDK2 in human COV318 cells; type: cell-based
Homo sapiens [9] = species on record: Homo sapiens; experiment: Selectivity ratio of IC50 for inhibition of CDK4 (unknown origin) to IC50 for inhibition recombinant human N-terminal GST-tagged full-length CDK2/Flag-tagged cyclinE1 expressed in baculovirus expression system; details: tested as the 2H-labelled form
Homo sapiens [10] = species on record: Homo sapiens; experiment: Selectivity ratio of IC50 for inhibition of CDK1 (unknown origin) to IC50 for inhibition recombinant human N-terminal GST-tagged full-length CDK2/Flag-tagged cyclinE1 expressed in baculovirus expression system; details: tested as the 2H-labelled form
Homo sapiens [11] = species on record: Homo sapiens; experiment: Selectivity ratio of IC50 for inhibition of CDK7 (unknown origin) to IC50 for inhibition recombinant human N-terminal GST-tagged full-length CDK2/Flag-tagged cyclinE1 expressed in baculovirus expression system; details: tested as the 2H-labelled form
Homo sapiens [12] = species on record: Homo sapiens; experiment: Selectivity ratio of IC50 for inhibition of CDK9 (unknown origin) to IC50 for inhibition recombinant human N-terminal GST-tagged full-length CDK2/Flag-tagged cyclinE1 expressed in baculovirus expression system; details: tested as the 2H-labelled form
Homo sapiens [13] = species on record: Homo sapiens; experiment: Selectivity ratio of IC50 for inhibition of CDK6 (unknown origin) to IC50 for inhibition recombinant human N-terminal GST-tagged full-length CDK2/Flag-tagged cyclinE1 expressed in baculovirus expression system; details: tested as the 2H-labelled form

With C[C@@H]1CCC[C@H]1N1C(=O)C2(CC2)c2cnc(Nc3ccc(S(=O)(=O)NCCO)cc3)nc21 (relative stereo) the pIC50 [1] was 8.74, the Ratio IC50 (Homo sapiens [2]) was 250 and the Ratio IC50 (Homo sapiens [3]) was 29. The Ratio IC50 (Homo sapiens [4]) was 28, the pIC50 [5] was 6.11 and the predicted hepatic clearance at 1 µM [6] was > 18.3 mL/min/kg.
For CC1(C)Cc2cnc(Nc3ccc(S(N)(=O)=O)cc3)nc2N(C2CCCC2)C1=O, the pIC50 [1] was 8.30 and the pIC50 [7] was 6.77.
In the case of CS(=O)(=O)N1CCC(Nc2ncc3c(n2)N(CC(F)F)C(=O)C32CC2)CC1, the pIC50 [1] was 6.06.
Molecule C[C@@H]1CCC[C@H]1N1C(=O)C2(CC2)c2cnc(Nc3ccc(S(=O)(=O)N[C@@H]4CCCN(C)C4)cc3)nc21 has a pIC50 [1] of 9.49, a Ratio IC50 (Homo sapiens [2]) of 100 and a Ratio IC50 (Homo sapiens [3]) of 8. The Ratio IC50 (Homo sapiens [4]) was 9, the pIC50 [5] was 7.36 and the predicted hepatic clearance at 1 µM [6] was > 18.3 mL/min/kg.
With C[C@H]1CCC[C@@H]1N1C(=O)C2(CC2)c2cnc(NC3CCN(S(C)(=O)=O)CC3)nc21 (mixture of isomers) the pIC50 [1] was 8.15, the pIC50 [7] was 6.27 and the Ratio IC50 (Homo sapiens [8]) was 77.
Molecule CNS(=O)(=O)c1ccc(Nc2ncc3c(n2)N([C@H]2CCC[C@@H]2C)C(=O)C32CC2)cc1 (relative stereo) has a pIC50 [1] of 9.48, a Ratio IC50 (Homo sapiens [2]) of 890 and a Ratio IC50 (Homo sapiens [3]) of 33. The Ratio IC50 (Homo sapiens [4]) was 48, the pIC50 [5] was 6.64 and the predicted hepatic clearance at 1 µM [6] was 18.3 mL/min/kg.
For CS(=O)(=O)N1CCC(Nc2ncc3c(n2)N(C2CCOCC2)C(=O)C32CC2)CC1, the pIC50 [1] was 5.66.
With CS(=O)(=O)N1CCC(Nc2ncc3c(n2)N(C2CCCCC2)C(=O)C32CC2)CC1 the pIC50 [1] was 7.09 and the pIC50 [7] was < 5.30.
In the case of CNS(=O)(=O)c1ccc(Nc2ncc3c(n2)N([C@@H]2CCC[C@@H](O)C2)C(=O)C32CC2)cc1, the pIC50 [1] was 9.60, the Ratio IC50 (Homo sapiens [2]) was 1200 and the Ratio IC50 (Homo sapiens [3]) was 1000. The Ratio IC50 (Homo sapiens [4]) was 230, the pIC50 [5] was 6.17 and the predicted hepatic clearance at 1 µM [6] was 13.3 mL/min/kg. The Ratio IC50 (Homo sapiens [9]) was 770, the Ratio IC50 (Homo sapiens [10]) was 1200 and the Ratio IC50 (Homo sapiens [11]) was 17000. It also gave a Ratio IC50 (Homo sapiens [12]) of 8200 and a Ratio IC50 (Homo sapiens [13]) of 230.
For Cn1cc(S(=O)(=O)N2CCC(Nc3ncc4c(n3)N(C3CCCC3)C(=O)C43CC3)CC2)cn1, the pIC50 [1] was 7.77, the pIC50 [7] was 5.89 and the Ratio IC50 (Homo sapiens [8]) was 75.
With CC1(C)C(=O)N(C2CCCC2)c2nc(NC3CCN(S(C)(=O)=O)CC3)ncc21 the pIC50 [1] was 7.06 and the pIC50 [7] was < 5.30.
